A short description of this test: Calcium Flux Assay: An in vitro assay was used to determine the potency of test compounds as inhibitors of the glutamate response of the channel formed by GluA1o-γ8. To ensure a 1:1 stoichiometry of GluA1o and γ8 subunits in the expressed channel, a fusion of the cDNAs for GRIA1o and CACNG8 was used. Following Shi et al (2009) The stoichiometry of AMPA receptors and TARPs varies by neuronal cell type. Neuron 62(5): 633-640), the C-terminus of the cDNA for GRIA1o was fused to the N-terminus of the cDNA for γ8. The linker sequence was QQQQQQQQQQEFAT. Channels expressed with this construct appear to have similar properties to channels formed by co-expression of GRIA1o with an excess of CACNG8 (Shi et al. 2009). A clonal cell line in HEK293 cells stably expressing this construct, with a geneticin selection marker, was generated for use in this assay.Cell expressing the GRIA1o-CACNG8 fusion construct were grown in a monolayer in 96- or 384-well microtiter plates. They were washed with assay buffer (135 mM NaCl, 4 mM KCl, 3 mM CaCl2, 1 mM MgCl2, 5 mM glucose, 10 mM HEPES, pH 7.4, 300 mOs) using a Biotek EL405 plate washer. The cells were then loaded with a calcium-sensitive dye (Calcium-5 or Calcium-6, Molecular Devices) and the test compounds at a range of concentrations. […]. It counts as cell-based.

Regarding `Cc1cc(-c2c(C(F)(F)F)ccn3cc(C(C)C)nc23)cc2cn[nH]c12`, the IC50 stood at 100 pM.

Values taken from ChEMBL document CHEMBL5726023, “Fused azaheterocyclic compounds and their use as AMPA receptor modulators” (2018).
